We go through five compounds from BindingDB's records for doi:10.1016/0014-2999(92)90578-r (Novo Nordisk, 1992).

Some targets named below: Adenylate cyclase type 2 (Rattus norvegicus, UniProt P26769); D(2) dopamine receptor (Rattus norvegicus, UniProt P61169); D(1A) dopamine receptor (Rattus norvegicus, UniProt P18901).
In experiment [1] the target is 5-hydroxytryptamine receptor 2A (Rattus norvegicus, UniProt P14842).

Where “and” joins values, the source holds several entries; their conditions need not be identical. Identical values can stand only once.

Sequence of D(2) dopamine receptor (P61169 whole entry): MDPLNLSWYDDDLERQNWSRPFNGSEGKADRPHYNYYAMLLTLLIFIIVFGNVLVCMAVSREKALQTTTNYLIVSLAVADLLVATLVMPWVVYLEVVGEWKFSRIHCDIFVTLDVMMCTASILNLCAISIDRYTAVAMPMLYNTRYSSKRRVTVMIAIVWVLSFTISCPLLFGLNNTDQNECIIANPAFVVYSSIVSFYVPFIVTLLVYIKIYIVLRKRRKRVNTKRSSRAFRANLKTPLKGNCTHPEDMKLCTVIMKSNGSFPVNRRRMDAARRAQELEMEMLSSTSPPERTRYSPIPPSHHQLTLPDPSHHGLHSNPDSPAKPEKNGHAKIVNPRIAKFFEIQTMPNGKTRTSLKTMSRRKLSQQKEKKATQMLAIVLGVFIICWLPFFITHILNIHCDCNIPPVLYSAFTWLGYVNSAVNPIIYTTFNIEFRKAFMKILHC
Sequence of Adenylate cyclase type 2 (P26769 whole entry): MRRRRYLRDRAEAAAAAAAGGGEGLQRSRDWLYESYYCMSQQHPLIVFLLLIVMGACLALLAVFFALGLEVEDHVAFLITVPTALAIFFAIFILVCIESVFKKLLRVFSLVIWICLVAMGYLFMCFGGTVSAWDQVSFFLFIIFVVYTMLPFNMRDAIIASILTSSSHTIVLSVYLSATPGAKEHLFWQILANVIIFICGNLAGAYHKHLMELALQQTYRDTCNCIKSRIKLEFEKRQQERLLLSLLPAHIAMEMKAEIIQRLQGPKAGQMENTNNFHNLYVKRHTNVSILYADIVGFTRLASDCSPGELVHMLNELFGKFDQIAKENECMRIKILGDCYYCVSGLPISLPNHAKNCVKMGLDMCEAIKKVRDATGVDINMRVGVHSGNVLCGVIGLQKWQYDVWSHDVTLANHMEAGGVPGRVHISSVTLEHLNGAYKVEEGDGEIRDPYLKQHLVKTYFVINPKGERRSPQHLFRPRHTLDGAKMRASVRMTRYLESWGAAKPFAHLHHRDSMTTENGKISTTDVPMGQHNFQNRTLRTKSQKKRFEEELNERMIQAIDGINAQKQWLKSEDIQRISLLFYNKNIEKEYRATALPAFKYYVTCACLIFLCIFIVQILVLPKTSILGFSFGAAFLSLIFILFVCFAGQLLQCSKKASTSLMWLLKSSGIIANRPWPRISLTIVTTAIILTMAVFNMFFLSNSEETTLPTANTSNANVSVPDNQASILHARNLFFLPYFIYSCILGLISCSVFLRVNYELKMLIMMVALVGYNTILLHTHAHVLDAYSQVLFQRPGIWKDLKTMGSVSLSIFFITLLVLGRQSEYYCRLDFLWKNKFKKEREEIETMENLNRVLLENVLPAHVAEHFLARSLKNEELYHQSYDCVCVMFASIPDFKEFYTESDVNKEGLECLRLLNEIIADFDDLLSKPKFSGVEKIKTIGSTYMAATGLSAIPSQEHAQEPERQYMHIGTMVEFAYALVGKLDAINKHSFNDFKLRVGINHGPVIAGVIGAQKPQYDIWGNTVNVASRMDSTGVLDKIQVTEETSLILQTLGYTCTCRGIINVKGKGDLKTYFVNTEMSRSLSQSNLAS
Sequence of 5-hydroxytryptamine receptor 2A (P14842 whole entry): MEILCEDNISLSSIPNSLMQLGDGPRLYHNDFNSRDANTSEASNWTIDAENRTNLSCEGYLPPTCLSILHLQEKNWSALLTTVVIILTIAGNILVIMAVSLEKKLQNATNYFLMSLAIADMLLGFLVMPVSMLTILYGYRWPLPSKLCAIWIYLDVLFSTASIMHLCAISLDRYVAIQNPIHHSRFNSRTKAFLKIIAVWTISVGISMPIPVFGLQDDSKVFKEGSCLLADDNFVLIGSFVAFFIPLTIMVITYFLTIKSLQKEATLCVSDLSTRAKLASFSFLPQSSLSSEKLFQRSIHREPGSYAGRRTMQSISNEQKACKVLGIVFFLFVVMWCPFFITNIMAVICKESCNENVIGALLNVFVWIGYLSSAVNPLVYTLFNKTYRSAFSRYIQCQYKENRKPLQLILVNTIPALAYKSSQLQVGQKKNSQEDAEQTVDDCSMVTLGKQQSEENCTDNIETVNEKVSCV
Sequence of D(1A) dopamine receptor (P18901 whole entry): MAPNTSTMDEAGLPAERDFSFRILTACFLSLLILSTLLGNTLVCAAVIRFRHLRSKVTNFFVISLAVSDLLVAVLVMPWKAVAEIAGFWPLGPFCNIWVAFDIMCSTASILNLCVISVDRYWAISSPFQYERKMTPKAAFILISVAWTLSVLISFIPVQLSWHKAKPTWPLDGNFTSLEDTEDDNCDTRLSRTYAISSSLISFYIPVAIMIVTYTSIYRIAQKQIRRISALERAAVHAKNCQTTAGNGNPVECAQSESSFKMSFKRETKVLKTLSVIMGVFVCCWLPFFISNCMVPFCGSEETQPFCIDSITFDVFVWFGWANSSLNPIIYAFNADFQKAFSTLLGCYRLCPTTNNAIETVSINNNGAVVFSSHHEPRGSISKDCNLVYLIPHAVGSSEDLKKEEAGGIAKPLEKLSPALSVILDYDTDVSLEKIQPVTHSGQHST

Turning to `CN1CCc2cc(Cl)c(O)cc2[C@@H](c2cccc3ccoc23)C1`, the Ki at Adenylate cyclase type 2 was 2.8 nM; at D(2) dopamine receptor, 898 nM and 988 nM.
On Adenylate cyclase type 2, `CN1CCc2cc(Cl)c(O)cc2[C@@H](c2ccccc2)C1` [SCH 23390,R(+)] registered a Ki of 39.9 nM. That is a double-digit nanomolar value.
On to `CN1CCc2cc([N+](=O)[O-])c(O)cc2C(c2cccc3c2OCC3)C1` (stereo not drawn) [CAS_164252], for which the inhibitory constant (Ki) on D(1A) dopamine receptor was 5.8 nM; at Adenylate cyclase type 2 it was 9.1 nM; in experiment [1], 355 nM; at D(2) dopamine receptor, > 10000 nM.
As for `Oc1cc2c(cc1O)[C@@H](c1ccccc1)CNCC2`, the Ki is 415 nM on Adenylate cyclase type 2 and > 10000 nM in experiment [1].
With `CN1CCc2cc(Cl)c(O)cc2C(c2cccc3c2OCC3)C1` (stereo not drawn) [NSC_132421], the Ki worked out at 0.17 nM at D(1A) dopamine receptor, 2.2 nM at Adenylate cyclase type 2, 4.5 nM in experiment [1] and 942 nM at D(2) dopamine receptor.
